We go through 20 compounds from PubChem BioAssay AID280 (DTP/NCI, 2004).

Molecules are shown by their SMILES. Values joined by “and” are separate entries in the source; they are usually repeats but may differ in a detail not shown here. Equal values may be shown once. Toxic doses and inconclusive results are not listed.

The test system of the experiment is nude mice, LOX melanoma ip, survival T/C. Put plainly: NCI In Vivo Anticancer Drug Screen. Data for tumor model Human Amelanotic Melanoma (LOX) (intraperitoneal) in NU/NU BALB/C (nude) mice. As to conditions: endpoint: median survival time, schedule: Q04DX003 (ip), higher = longer survival. As for the experimental part:
The antitumor activity of compounds was measured in mice bearing transplantable tumors. Survival or tumor size were measured and the results are expressed as the measurement made in the treated group (T) divided by the measurement made in the vehicle treated control group (C). The tumor model used in this assay is Human Amelanotic Melanoma (LOX) (intraperitoneal) in NU/NU BALB/C (nude) mice

Setting [1] is: dose: 75.0 mg/kg/injection, vehicle: Klucel (hydroxypropylcellulose) (HPC).
[2] abbreviates: dose: 150.0 mg/kg/injection, vehicle: Klucel (hydroxypropylcellulose) (HPC).
Where [3] appears, read: dose: 300.0 mg/kg/injection, vehicle: Klucel (hydroxypropylcellulose) (HPC).
Setting [4] is: dose: 50.0 mg/kg/injection, vehicle: saline with Tween-80.
Setting [5] is: dose: 100.0 mg/kg/injection, vehicle: saline with Tween-80.
[6] abbreviates: dose: 200.0 mg/kg/injection, vehicle: saline with Tween-80.
The mark [7] stands for this setting: dose: 30.0 mg/kg/injection, vehicle: saline with Tween-80.
Setting [8] is: dose: 60.0 mg/kg/injection, vehicle: saline with Tween-80.
[9] abbreviates: dose: 120.0 mg/kg/injection, vehicle: saline with Tween-80.
The mark [10] stands for this setting: dose: 240.0 mg/kg/injection, vehicle: saline with Tween-80.
The mark [11] stands for this setting: dose: 25.0 mg/kg/injection, vehicle: saline with Tween-80.

With `CN(C)C(=O)SC1=C(c2c(Cl)cccc2Cl)C(=O)c2ccccc21`, the T/C was 103 % of control and 110 % of control under setting [1]; 112 % of control and 97 % of control under setting [2]; 109 % of control and 92 % of control under setting [3]; 110 % of control and 123 % of control (dose: 600.0 mg/kg/injection, vehicle: Klucel (hydroxypropylcellulose) (HPC)); 105 % of control (dose: 1200.0 mg/kg/injection, vehicle: Klucel (hydroxypropylcellulose) (HPC)).
`CCOC(=O)Nc1cc2c(c(N)n1)N=C(c1ccc3ccccc3c1)CN2`: the T/C is, setting by setting: (dose: 14.4 mg/kg/injection, vehicle: saline with Tween-80) 100 % of control; (dose: 24.0 mg/kg/injection, vehicle: saline with Tween-80) 123 % of control; (dose: 40.0 mg/kg/injection, vehicle: saline with Tween-80) 103 % of control and 112 % of control; (dose: 66.66 mg/kg/injection, vehicle: saline with Tween-80) 109 % of control; (dose: 67.0 mg/kg/injection, vehicle: saline with Tween-80) 111 % of control; (dose: 111.0 mg/kg/injection, vehicle: saline with Tween-80) 112 % of control. The T/C (dose: 185.0 mg/kg/injection, vehicle: saline with Tween-80) was 122 % of control.
On to `CCCCOCN(COCCCC)C12CC3CC(CC(C3)C1)C2`, for which the T/C under setting [4] was 106 % of control; the T/C under setting [5] is 97 % of control; the T/C under setting [6] was 114 % of control; the T/C (dose: 400.0 mg/kg/injection, vehicle: saline with Tween-80) is 120 % of control.
Regarding `CCC(=O)[O][Bi]([c]1ccccc1)[c]1ccccc1`, the T/C runs as follows: (dose: 3.13 mg/kg/injection, vehicle: Klucel (hydroxypropylcellulose) (HPC)) 93 % of control; (dose: 6.25 mg/kg/injection, vehicle: Klucel (hydroxypropylcellulose) (HPC)) 88 % of control; (dose: 12.5 mg/kg/injection, vehicle: Klucel (hydroxypropylcellulose) (HPC)) 110 % of control; (dose: 25.0 mg/kg/injection, vehicle: Klucel (hydroxypropylcellulose) (HPC)) 100 % of control.
On to `O=C1c2cccc(NCCNCCO)c2C(=O)c2cccc(NCCNCCO)c21`, for which the T/C runs as follows: (dose: 4.69 mg/kg/injection, vehicle: suspension in saline) 122 % of control; (dose: 9.38 mg/kg/injection, vehicle: suspension in saline) 120 % of control.
With `O=NNc1ccc2cccnc2n1`, the T/C is 99 % of control (dose: 9.38 mg/kg/injection, vehicle: water); 120 % of control (dose: 18.75 mg/kg/injection, vehicle: water); 157 % of control (dose: 37.5 mg/kg/injection, vehicle: water); 192 % of control (dose: 75.0 mg/kg/injection, vehicle: water); 214 % of control (dose: 150.0 mg/kg/injection, vehicle: water).
`Cn1c(=S)sc2nc3ccccc3n2c1=S`: the T/C by setting is: under setting [7], 122 % of control; under setting [8], 100 % of control; under setting [9], 104 % of control; under setting [10], 108 % of control; (dose: 480.0 mg/kg/injection, vehicle: saline with Tween-80) 94 % of control.
Turning to `COc1ccc(C(C)c2cc3c(cc2OC)OCO3)cc1` (stereo not drawn), the T/C under setting [11] is 114 % of control, the T/C under setting [5] was 158 % of control and the T/C under setting [6] is 198 % of control.
Regarding `C=C(c1ccc(OC)c(OC)c1)c1nccc2cc(OC)c(OC)cc12`, the T/C under setting [1] is 88 % of control, the T/C under setting [2] was 99 % of control and the T/C under setting [3] was 96 % of control.
For the compound `NC(Cc1ccc(N(CCCl)Cc2ccccc2)cc1)C(=O)O` (stereo not drawn), the T/C by setting is: under setting [11], 107 % of control; under setting [4], 124 % of control; under setting [6], 158 % of control and 163 % of control.
In the case of `S=C1CCCCN1`, the T/C (dose: 37.5 mg/kg/injection, vehicle: distilled water + Tween-80 + alcohol) is 98 % of control; the T/C (dose: 75.0 mg/kg/injection, vehicle: distilled water + Tween-80 + alcohol) is 100 % of control; the T/C (dose: 150.0 mg/kg/injection, vehicle: distilled water + Tween-80 + alcohol) was 111 % of control.
Take `O=C1C2=C(C(=O)c3cnccc31)C1C=CC2CC1` (stereo not drawn): the T/C (dose: 25.0 mg/kg/injection, vehicle: DMSO) is 93 % of control.
For the compound `CN1CCN(CN2C(=O)C3C4C=CC(C3C2=O)C2C3C(=O)N(CN5CCN(C)CC5)C(=O)C3C42)CC1` (stereo not drawn), the T/C by setting is: (dose: 12.5 mg/kg/injection, vehicle: water) 104 % of control; (dose: 25.0 mg/kg/injection, vehicle: water) 109 % of control; (dose: 50.0 mg/kg/injection, vehicle: water) 110 % of control; (dose: 100.0 mg/kg/injection, vehicle: water) 106 % of control.
With `N#Cc1c(N)[nH]c2ccc(Sc3ccccc3)cc12`, the T/C reads like this: (dose: 15.0 mg/kg/injection, vehicle: saline with Tween-80) 99 % of control; under setting [7], 89 % of control; under setting [8], 94 % of control; under setting [9], 104 % of control; under setting [10], 124 % of control.
Turning to `CO[C@@]12[C@@H]3N[C@@H]3CN1C1=C(C(=O)C(NCC3CCCO3)=C(C)C1=O)[C@@H]2COC(N)=O` (stereo partly drawn), the T/C was 154 % of control (dose: 12.5 mg/kg/injection, vehicle: distilled water + Tween-80); 160 % of control (dose: 25.0 mg/kg/injection, vehicle: distilled water + Tween-80); 215 % of control (dose: 50.0 mg/kg/injection, vehicle: distilled water + Tween-80).
For the compound `N=C1CCCS1`, the T/C was 114 % of control (dose: 10.0 mg/kg/injection, vehicle: saline); 96 % of control (dose: 20.0 mg/kg/injection, vehicle: saline); 102 % of control (dose: 40.0 mg/kg/injection, vehicle: saline); 113 % of control (dose: 80.0 mg/kg/injection, vehicle: saline); 116 % of control (dose: 160.0 mg/kg/injection, vehicle: saline).
With `Cc1cc(O)c2c(c1O)C(=O)C13C(=C2O)C(=O)C2C(O)C1C1C(O)C3C(=O)C3=C(O)c4c(O)cc(C)c(O)c4C(=O)C321` (stereo not drawn), the T/C (dose: 6.25 mg/kg/injection, vehicle: saline with Tween-80) was 114 % of control.
In the case of `Nc1nc2c(C(=O)N3CCCC3)nnn2c2ccccc12`, the T/C is 96 % of control (dose: 12.5 mg/kg/injection, vehicle: saline with Tween-80); 102 % of control under setting [11]; 92 % of control under setting [4].
For `COc1cccc2c1C(=O)C1=C(C2=O)c2c(O)cc(CO)cc2C(O)C1O` (stereo not drawn), the T/C reads like this: (dose: 6.25 mg/kg/injection, vehicle: saline + Tween-80 + alcohol) 98 % of control; (dose: 12.5 mg/kg/injection, vehicle: saline + Tween-80 + alcohol) 109 % of control; (dose: 25.0 mg/kg/injection, vehicle: saline + Tween-80 + alcohol) 112 % of control; (dose: 50.0 mg/kg/injection, vehicle: saline + Tween-80 + alcohol) 109 % of control.
In the case of `O=C(CCCCCCC(=O)ON1C(=O)CCC1=O)ON1C(=O)CCC1=O`, the T/C (dose: 75.0 mg/kg/injection, vehicle: saline with Tween-80) is 117 % of control; the T/C (dose: 150.0 mg/kg/injection, vehicle: saline with Tween-80) was 101 % of control; the T/C (dose: 300.0 mg/kg/injection, vehicle: saline with Tween-80) was 98 % of control.
